Values of other authors, collected in patent US5385907A, “Ointments containing FK-506 or derivatives thereof” (priority 1990, dated 1995).

Details: dissolved in ethanol (EP-A-315978)

With `C=CCC1C=C(C)CC(C)CC(OC)C2OC(O)(C(=O)C(=O)N3CCCCC3C(=O)OC(C(C)=CC3CCC(O)C(OC)C3)C(C)C(O)CC1=O)C(C)CC2OC` (stereo not shown) [FK 506 substance, 17-allyl-1,14-dihydroxy-12-[2-(4-hydroxy-3-methoxycyclohexyl)-1-methylvinyl]-23,25-dimethoxy-13,19,21,27-tetramethyl-11,28-dioxa-4-azatricyclo[22.3.1.0^4,9]octacos-18-ene-2,3,10,16-tetraone] as the compound, how does the inflammatory inhibition read?
The inflammatory inhibition was “effective against inflammatory inhibition”.
